# ChEMBL document CHEMBL5230113, “2-substituted benzothiazoles as antiproliferative agents: Novel insights on structure-activity relationships” (Eur J Med Chem, 2020)
# Assays:
# [1] = Cytotoxicity against human SPCA1 cells assessed as inhibition of cell growth; format: functional, cell-based
# SW-620 = experiment: Cytotoxicity against human SW620 cells assessed as inhibition of cell growth; format: functional, cell-based
# HeLa = experiment: Antiproliferative activity against human HeLa cells assessed as cell growth inhibition; format: functional, cell-based
# PC-3 = experiment: Cytotoxicity against human PC-3 cells assessed as inhibition of cell growth; format: functional, cell-based
# [2] = target: Tyrosine-protein kinase ABL1 (Mus musculus, UniProt P00520, T315I); experiment: Inhibition of Abl T315I mutant in mouse BaF3 cells; format: cell-based
# Tyrosine-protein kinase ABL1 (Mus musculus, UniProt P00520, T315I), sequence (P00520 whole entry T315I): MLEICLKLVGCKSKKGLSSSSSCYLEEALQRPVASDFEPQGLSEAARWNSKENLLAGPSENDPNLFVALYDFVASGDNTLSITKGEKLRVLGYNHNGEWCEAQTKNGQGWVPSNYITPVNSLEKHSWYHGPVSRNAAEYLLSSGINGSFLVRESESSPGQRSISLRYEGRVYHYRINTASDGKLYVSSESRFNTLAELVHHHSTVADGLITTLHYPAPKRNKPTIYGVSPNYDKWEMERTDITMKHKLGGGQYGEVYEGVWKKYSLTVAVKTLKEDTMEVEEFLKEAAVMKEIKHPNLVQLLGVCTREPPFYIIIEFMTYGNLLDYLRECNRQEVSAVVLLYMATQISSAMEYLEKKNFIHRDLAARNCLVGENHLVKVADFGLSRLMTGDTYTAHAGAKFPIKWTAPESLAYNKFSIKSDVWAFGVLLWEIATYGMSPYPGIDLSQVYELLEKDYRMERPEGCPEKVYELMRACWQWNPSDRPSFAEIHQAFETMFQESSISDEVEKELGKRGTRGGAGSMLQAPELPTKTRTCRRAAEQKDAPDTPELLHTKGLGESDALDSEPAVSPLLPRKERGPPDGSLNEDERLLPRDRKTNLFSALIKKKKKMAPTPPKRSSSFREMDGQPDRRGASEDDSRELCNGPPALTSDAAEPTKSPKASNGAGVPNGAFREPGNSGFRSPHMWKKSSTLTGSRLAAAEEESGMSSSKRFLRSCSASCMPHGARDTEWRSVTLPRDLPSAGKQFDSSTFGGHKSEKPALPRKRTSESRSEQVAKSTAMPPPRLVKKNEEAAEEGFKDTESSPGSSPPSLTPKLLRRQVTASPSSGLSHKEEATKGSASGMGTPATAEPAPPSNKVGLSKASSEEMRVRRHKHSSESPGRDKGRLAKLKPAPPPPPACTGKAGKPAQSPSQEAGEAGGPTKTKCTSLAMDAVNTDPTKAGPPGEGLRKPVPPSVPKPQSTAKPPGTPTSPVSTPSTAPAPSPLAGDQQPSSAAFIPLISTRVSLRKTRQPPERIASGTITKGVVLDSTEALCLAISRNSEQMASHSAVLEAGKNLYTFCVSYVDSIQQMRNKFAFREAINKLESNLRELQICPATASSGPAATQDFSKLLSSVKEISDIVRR
# [3] = target: Tyrosine-protein kinase ABL1 (Mus musculus, UniProt P00520); experiment: Inhibition of wild type Abl in mouse BaF3 cells; format: cell-based
# Tyrosine-protein kinase ABL1 (Mus musculus, UniProt P00520), sequence (P00520 whole entry): as the sequence (P00520 whole entry T315I) above, with I315T counted along it
# [4] = target: Tyrosine-protein kinase ABL1 (Homo sapiens, UniProt P00519); experiment: Inhibition of wild type Abl (unknown origin)
# Tyrosine-protein kinase ABL1 (Homo sapiens, UniProt P00519), sequence (P00519 whole entry): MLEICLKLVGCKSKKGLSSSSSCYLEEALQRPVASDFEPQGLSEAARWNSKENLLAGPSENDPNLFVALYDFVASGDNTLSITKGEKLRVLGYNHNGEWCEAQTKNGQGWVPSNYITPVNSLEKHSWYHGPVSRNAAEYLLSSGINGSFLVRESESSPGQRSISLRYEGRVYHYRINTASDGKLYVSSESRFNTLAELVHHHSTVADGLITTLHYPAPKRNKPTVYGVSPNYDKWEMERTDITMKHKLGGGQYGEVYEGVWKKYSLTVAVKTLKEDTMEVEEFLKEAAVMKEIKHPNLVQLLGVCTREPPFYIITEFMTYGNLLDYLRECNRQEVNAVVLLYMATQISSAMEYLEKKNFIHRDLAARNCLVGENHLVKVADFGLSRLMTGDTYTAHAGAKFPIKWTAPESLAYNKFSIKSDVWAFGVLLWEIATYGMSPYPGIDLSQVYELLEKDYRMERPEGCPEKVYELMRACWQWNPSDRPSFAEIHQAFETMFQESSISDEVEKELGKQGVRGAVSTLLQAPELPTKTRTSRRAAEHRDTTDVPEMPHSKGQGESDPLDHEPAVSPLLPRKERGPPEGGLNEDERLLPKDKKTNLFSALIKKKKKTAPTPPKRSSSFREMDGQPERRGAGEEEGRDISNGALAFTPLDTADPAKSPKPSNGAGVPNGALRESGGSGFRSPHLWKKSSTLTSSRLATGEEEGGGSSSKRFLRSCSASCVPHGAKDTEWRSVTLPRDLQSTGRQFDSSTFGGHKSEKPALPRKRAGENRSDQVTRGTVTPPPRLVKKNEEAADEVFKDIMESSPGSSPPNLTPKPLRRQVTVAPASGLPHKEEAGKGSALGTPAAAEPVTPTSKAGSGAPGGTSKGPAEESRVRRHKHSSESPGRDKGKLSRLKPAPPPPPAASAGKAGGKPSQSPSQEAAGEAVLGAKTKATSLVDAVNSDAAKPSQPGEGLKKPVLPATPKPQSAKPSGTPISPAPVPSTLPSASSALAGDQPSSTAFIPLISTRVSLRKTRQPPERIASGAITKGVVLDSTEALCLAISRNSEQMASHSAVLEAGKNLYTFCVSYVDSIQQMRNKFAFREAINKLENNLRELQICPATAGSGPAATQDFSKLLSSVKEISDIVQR
# [5] = target: Aryl hydrocarbon receptor (Homo sapiens, UniProt P35869); experiment: Binding affinity to AhR (unknown origin)
# Aryl hydrocarbon receptor, sequence (P35869 whole entry): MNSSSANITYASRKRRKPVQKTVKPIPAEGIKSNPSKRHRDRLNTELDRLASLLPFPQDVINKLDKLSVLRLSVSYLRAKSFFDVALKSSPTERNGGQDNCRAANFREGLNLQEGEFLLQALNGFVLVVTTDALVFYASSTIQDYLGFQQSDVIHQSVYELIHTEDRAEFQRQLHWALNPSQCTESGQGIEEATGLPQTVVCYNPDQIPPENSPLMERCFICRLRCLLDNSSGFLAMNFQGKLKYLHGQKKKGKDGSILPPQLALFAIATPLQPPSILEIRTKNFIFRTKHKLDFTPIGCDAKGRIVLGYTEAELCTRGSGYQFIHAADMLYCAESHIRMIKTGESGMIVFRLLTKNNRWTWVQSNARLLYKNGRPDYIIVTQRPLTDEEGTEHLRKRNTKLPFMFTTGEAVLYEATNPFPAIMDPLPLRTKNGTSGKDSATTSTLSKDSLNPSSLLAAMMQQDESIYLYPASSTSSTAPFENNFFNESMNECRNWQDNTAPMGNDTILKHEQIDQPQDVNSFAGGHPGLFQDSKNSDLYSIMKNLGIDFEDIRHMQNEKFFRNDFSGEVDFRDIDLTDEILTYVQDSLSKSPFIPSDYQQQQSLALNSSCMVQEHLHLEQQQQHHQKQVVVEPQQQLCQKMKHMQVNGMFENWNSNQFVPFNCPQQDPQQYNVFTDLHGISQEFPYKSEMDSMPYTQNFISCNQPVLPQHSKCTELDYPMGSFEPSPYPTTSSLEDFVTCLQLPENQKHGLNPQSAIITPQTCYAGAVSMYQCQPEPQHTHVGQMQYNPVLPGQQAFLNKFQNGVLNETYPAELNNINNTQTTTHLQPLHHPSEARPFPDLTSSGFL
# Carbonic anhydrase 9 = Carbonic anhydrase 9 (Homo sapiens, UniProt Q16790); experiment: Inhibition of CA9 (unknown origin)
# NUGC-3 = experiment: Cytotoxicity against human NUGC-3 cells assessed as cell growth inhibition; format: functional
# SK-HEP1 = experiment: Cytotoxicity against human SK-HEP1 cells assessed as cell growth inhibition; format: functional
# MDA-MB-231 [6] = experiment: Cytotoxicity against human MDA-MB-231 cells assessed as cell growth inhibition; format: functional, cell-based
# K562 = experiment: Cytotoxicity against human K562 cells; format: functional
# KM12 = experiment: Cytotoxicity against human KM12 cells assessed as cell growth inhibition; format: functional
# Angiopoietin-1 receptor = Angiopoietin-1 receptor (Homo sapiens, UniProt Q02763); experiment: Inhibition of Tie2 (unknown origin)
# Angiopoietin-1 receptor, sequence (Q02763 whole entry): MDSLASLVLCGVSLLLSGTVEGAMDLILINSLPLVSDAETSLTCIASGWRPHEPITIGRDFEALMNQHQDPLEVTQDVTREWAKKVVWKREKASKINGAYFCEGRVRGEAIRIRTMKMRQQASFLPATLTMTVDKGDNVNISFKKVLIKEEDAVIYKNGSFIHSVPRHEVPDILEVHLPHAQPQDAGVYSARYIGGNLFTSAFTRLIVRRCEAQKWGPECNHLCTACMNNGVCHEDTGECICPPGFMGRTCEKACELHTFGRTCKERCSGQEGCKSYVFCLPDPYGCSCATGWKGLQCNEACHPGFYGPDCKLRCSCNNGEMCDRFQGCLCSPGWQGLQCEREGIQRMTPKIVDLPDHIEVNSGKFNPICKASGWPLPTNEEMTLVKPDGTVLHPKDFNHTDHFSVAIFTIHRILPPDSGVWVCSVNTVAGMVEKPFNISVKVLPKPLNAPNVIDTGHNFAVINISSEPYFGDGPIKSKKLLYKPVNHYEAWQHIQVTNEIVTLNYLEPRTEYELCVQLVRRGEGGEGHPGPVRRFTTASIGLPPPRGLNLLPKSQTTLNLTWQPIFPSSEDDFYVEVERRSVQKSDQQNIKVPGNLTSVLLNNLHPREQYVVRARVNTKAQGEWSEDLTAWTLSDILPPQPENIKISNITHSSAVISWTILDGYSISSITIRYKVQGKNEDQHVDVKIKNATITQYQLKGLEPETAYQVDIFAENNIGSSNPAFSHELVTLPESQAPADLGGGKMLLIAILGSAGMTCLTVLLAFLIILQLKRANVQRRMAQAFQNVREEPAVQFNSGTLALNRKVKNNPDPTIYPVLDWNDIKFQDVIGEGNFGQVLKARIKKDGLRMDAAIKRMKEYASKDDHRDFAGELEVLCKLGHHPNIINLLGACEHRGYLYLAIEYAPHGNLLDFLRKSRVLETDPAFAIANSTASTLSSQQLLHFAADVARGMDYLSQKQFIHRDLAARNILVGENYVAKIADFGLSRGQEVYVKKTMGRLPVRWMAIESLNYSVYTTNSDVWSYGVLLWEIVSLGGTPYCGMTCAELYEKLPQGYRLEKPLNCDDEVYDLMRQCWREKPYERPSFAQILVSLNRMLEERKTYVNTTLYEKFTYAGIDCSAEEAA
# MCF7 = experiment: Cytotoxicity against human MCF7 cells assessed as inhibition of cell growth; format: functional, cell-based
# HCT-116 = experiment: Cytotoxicity against human HCT-116 cells assessed as inhibition of cell growth; format: functional, cell-based
# Tubulin = experiment: Inhibition of tubulin polymerization (unknown origin); format: protein-complex assay, Homo sapiens
# HepG2 = experiment: Cytotoxicity against human HepG2 cells assessed as inhibition of cell growth; format: functional, cell-based
# SMMC-7721 = experiment: Cytotoxicity against human SMMC-7721 cells assessed as cell growth inhibition; format: functional, cell-based
# [7] = target: T1, Prostaglandin G/H synthase 2 (Homo sapiens, UniProt P35354); experiment: Inhibition of COX-2 (unknown origin)
# T1 sequence (P35354 whole entry): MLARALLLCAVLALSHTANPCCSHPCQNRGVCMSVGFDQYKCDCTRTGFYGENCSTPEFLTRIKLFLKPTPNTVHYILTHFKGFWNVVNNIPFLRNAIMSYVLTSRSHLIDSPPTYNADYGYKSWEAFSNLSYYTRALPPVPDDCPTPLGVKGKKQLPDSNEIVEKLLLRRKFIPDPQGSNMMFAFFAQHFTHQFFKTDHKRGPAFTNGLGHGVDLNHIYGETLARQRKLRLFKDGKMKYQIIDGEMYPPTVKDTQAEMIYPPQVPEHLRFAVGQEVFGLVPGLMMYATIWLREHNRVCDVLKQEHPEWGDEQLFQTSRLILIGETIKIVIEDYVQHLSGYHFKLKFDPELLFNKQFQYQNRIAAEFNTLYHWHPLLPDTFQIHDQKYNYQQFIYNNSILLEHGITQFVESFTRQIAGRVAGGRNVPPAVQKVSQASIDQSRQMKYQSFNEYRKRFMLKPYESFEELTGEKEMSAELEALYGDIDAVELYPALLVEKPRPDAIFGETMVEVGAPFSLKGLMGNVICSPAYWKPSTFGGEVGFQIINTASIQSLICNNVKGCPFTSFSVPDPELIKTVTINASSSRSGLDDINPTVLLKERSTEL
# A549 = experiment: Antiproliferative activity against human A549 cells assessed as cell growth inhibition; format: functional, cell-based
# [8] = target: Prostaglandin G/H synthase 1 (Homo sapiens, UniProt P23219); experiment: Inhibition of COX-1 (unknown origin)
# Prostaglandin G/H synthase 1, sequence (P23219 whole entry): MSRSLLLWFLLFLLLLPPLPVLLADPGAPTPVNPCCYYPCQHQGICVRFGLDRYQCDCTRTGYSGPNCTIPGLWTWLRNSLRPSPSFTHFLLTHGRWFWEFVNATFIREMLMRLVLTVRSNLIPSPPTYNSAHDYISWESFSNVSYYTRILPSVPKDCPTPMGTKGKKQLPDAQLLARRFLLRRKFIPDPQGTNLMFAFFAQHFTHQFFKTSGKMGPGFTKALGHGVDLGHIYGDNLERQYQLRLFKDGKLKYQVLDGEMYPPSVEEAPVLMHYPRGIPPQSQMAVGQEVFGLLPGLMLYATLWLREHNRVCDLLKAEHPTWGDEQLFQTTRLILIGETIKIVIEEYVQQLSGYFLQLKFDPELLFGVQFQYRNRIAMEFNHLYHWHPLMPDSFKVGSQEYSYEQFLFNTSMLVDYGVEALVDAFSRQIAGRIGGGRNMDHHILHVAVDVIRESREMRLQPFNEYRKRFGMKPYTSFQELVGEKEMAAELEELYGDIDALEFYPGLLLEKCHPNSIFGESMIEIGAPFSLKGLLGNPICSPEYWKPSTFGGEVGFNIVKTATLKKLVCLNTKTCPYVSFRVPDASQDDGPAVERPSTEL
# C6 = experiment: Cytotoxicity against rat C6 cells assessed as inhibition of cell growth; format: functional, cell-based
# [9] = Cytotoxicity against human HCC4018 cells assessed as cell growth inhibition; format: functional, cell-based
# HCC4017 = experiment: Cytotoxicity against human HCC4017 cells assessed as cell growth inhibition; format: functional, cell-based
# Histone deacetylase 1 = Histone deacetylase 1 (Homo sapiens, UniProt Q13547); experiment: Inhibition of HDAC1 (unknown origin)
# DU-145 = experiment: Cytotoxicity against human DU-145 cells assessed as cell growth inhibition; format: functional
# MV4-11 = experiment: Antiproliferative activity against human MV4-11 cells assessed as cell growth inhibition; format: functional, cell-based
# DB = experiment: Antiproliferative activity against human DB cells assessed as cell growth inhibition; format: functional, cell-based
# SiHa = experiment: Antiproliferative activity against human SiHa cells assessed as cell growth inhibition; format: functional, cell-based
# HT-29 = experiment: Antiproliferative activity against human HT-29 cells assessed as inhibition of cell growth; format: functional, cell-based
# SK-N-SH = experiment: Antiproliferative activity against human SK-N-SH cells assessed as inhibition of cell growth; format: functional, cell-based
# NCI-H226 = experiment: Antiproliferative activity against human NCI-H226 cells assessed as inhibition of cell growth; format: functional, cell-based
# [10] = Activation of procaspase-3 (unknown origin); design: species or system Homo sapiens
# MDA-MB-231 [11] = experiment: Potency index, ratio of PAC-1 IC50 to test compound IC50 for antiproliferative activity against human MDA-MB-231 cells assessed as inhibition of cell growth; format: functional; settings: pooled result: one value given for 5 cell lines, strains, targets or settings
# MKN-45 = experiment: Antiproliferative activity against human MKN-45 cells assessed as inhibition of cell growth; format: functional, cell-based
# [12] = Homo sapiens, HepG2, read-out: IC50
smiles,measurement,setting,value
O=C(CSc1nc2ccc(NC(=O)CCl)cc2s1)NCc1ccccc1,IC50,[1],3.89 µM
same,IC50,SW-620,5.12 µM
same,IC50,HeLa,5.13 µM
same,IC50,PC-3,6.58 µM
CCNC(=O)Nc1nc2ccc(-c3ccccc3OC)cc2s1,IC50,[2],2140 nM
same,IC50,[3],3570 nM
same,IC50,[4],0.06 nM
COc1ccccc1-c1ccc2nc(NC(=O)NCCO)sc2c1,IC50,[2],140 nM
same,IC50,[3],89 nM
COc1ccccc1-c1ccc2nc(NC(=O)NCCN3CCN(C)CC3)sc2c1,IC50,[2],78 nM
same,IC50,[3],46 nM
COc1ccc(-c2nc3cc(F)ccc3s2)cc1OC,IC50,[5],25 nM
CCCC(Sc1nc2cc(Cl)ccc2s1)C(=O)NS(=O)(=O)c1ccc(OC)cc1 (stereo unspecified),IC50,Carbonic anhydrase 9,490 nM
Cc1cc(C)c2sc(NC(=O)c3ccc(C(F)(F)F)cc3)nc2c1,GI50,NUGC-3,290 nM
same,GI50,SK-HEP1,290 nM
same,GI50,MDA-MB-231 [6],290 nM
O=C(Nc1nc2ccc([N+](=O)[O-])cc2s1)c1ccc(C(F)(F)F)cc1,GI50,NUGC-3,860 nM
same,GI50,SK-HEP1,860 nM
same,GI50,MDA-MB-231 [6],860 nM
Cc1cc(C)c2sc(NC(=O)c3ccc(C#N)cc3)nc2c1,GI50,NUGC-3,290 nM
same,GI50,SK-HEP1,290 nM
same,GI50,MDA-MB-231 [6],290 nM
CCN1CCN(Cc2ccc(NC(=O)Nc3nc4ccc(Oc5ccnc(C(=O)NC)c5)cc4s3)cc2C(F)(F)F)CC1,GI50,K562,51.4 nM
same,GI50,KM12,19 nM
same,IC50,Angiopoietin-1 receptor,0.82 nM
Nc1ccc2sc(NC(=O)c3sc4ccccc4c3Cl)nc2c1,IC50,MCF7,40 nM
same,IC50,HCT-116,4 µM
O=C(CN1CCCCC1)Nc1ccc(-c2nc3ccccc3s2)cc1,IC50,MCF7,10 nM
same,IC50,MDA-MB-231 [6],8 nM
COc1ccc(CN(C(=O)CSc2nc3ccccc3s2)c2cc(OC)c(OC)c(OC)c2)cc1O,IC50,Tubulin,1900 nM
O=C(CN1CCOCC1)Nc1ccc(-c2nc3ccccc3s2)cc1,IC50,MCF7,10 nM
same,IC50,MDA-MB-231 [6],8 nM
CN1CCN(CC(=O)Nc2ccc(-c3nc4ccccc4s3)cc2)CC1,IC50,MCF7,10 nM
same,IC50,MDA-MB-231 [6],8 nM
COc1cccc2sc(NC(=O)c3ccc(C)cc3)nc12,GI50,NUGC-3,860 nM
same,GI50,SK-HEP1,860 nM
same,GI50,MDA-MB-231 [6],860 nM
Cc1cc(C)c2sc(NC(=O)c3ccc([N+](=O)[O-])cc3)nc2c1,GI50,NUGC-3,290 nM
same,GI50,SK-HEP1,290 nM
same,GI50,MDA-MB-231 [6],290 nM
Cc1ccc2nc(N/N=C/c3cccnc3Nc3ccc(Cl)cc3)sc2c1,IC50,MCF7,1030 nM
N=C(N)N/N=C/c1cn(-c2nc3ccc(Oc4ccc(F)cc4)cc3s2)nc1-c1ccccc1,IC50,HepG2; [12],3.75 µM
same,IC50,SMMC-7721,2310 nM
same,IC50,MCF7,2230 nM
same,IC50,MDA-MB-231 [6],2410 nM
Cc1nc(SCC(=O)Nc2nc3ccc(Cl)cc3s2)n(Nc2ccc([N+](=O)[O-])cc2)c1C,IC50,HepG2; hepg2,> 500 µg/mL
CC1=NNC(=O)/C1=N/Nc1cccc(-c2nc3ccccc3s2)c1,IC50,[7],100 nM
same,IC50,A549,> 25 µM
same,IC50,MCF7,> 25000 nM
same,IC50,[8],9.56 µM
COc1ccc2nc(NC(=O)CSc3nc(C)c(C)n3Nc3ccc([N+](=O)[O-])cc3)sc2c1,IC50,C6,> 500 µg/mL
same,IC50,HepG2; hepg2,> 500 µg/mL
O=C(NO)c1ccc(S(=O)(=O)N2CCN(c3nc4ccccc4s3)CC2)cc1,IC50,[9],4 µM
same,IC50,HCC4017,1630 nM
same,IC50,Histone deacetylase 1,4.8 µM
Cc1ccc(Nn2c(SCC(=O)Nc3nc4ccc(F)cc4s3)nc(C)c2C)cc1,IC50,C6,16.3 µg/mL
same,IC50,HepG2; hepg2,31.7 µg/mL
Cc1ccc(Nn2c(SCC(=O)Nc3nc4ccc(C)cc4s3)nc(C)c2C)cc1,IC50,HepG2; hepg2,26.3 µg/mL
O=C(CN1CCN(c2ccccc2F)CC1)Nc1ccc(-c2nc3ccccc3s2)cc1,GI50,A549,200 nM
same,GI50,HeLa,200 nM
same,GI50,MDA-MB-231 [6],200 nM
Cc1ccc2nc(N/N=C/c3cccnc3Nc3ccccc3)sc2c1,IC50,MCF7,1690 nM
Cc1ccc2nc(NC(=O)CSc3nc(C)c(C)n3Nc3ccc([N+](=O)[O-])cc3)sc2c1,IC50,C6,15.7 µg/mL
O=C(CNS(=O)(=O)c1cc(Cl)ccc1Cl)N1CCN(c2nc3ccccc3s2)CC1,CC50,"HepG2; Homo sapiens, HepG2",8 µM
same,CC50,DU-145,9 µM
O=C(CN1CCN(c2ccccc2)CC1)Nc1ccc(-c2nc3ccccc3s2)cc1,GI50,A549,200 nM
same,GI50,HeLa,200 nM
same,GI50,MDA-MB-231 [6],200 nM
O=C(Nc1cccc(-c2nc3ccccc3s2)c1)c1cccnc1,IC50,MV4-11,7.51 µM
same,IC50,A549,5.42 µM
same,IC50,HepG2; [12],15 µM
same,IC50,DB,15 µM
same,IC50,MCF7,15000 nM
same,IC50,HeLa,15 µM
CC(=O)N1N=C(C)/C(=N\Nc2cccc(-c3nc4ccccc4s3)c2)C1=O,IC50,[7],100 nM
same,IC50,A549,12.3 µM
same,IC50,MCF7,12300 nM
same,IC50,[8],9.56 µM
COc1cccc(-n2cc(CNc3ccc(-c4nc5ccccc5s4)cc3)nn2)c1,GI50,A549,200 nM
same,GI50,HeLa,200 nM
same,GI50,MDA-MB-231 [6],200 nM
Clc1cccc(-n2cc(CNc3ccc(-c4nc5ccccc5s4)cc3)nn2)c1,GI50,A549,200 nM
same,GI50,HeLa,200 nM
same,GI50,MDA-MB-231 [6],200 nM
COc1ccc(Cl)cc1C(=O)Nc1ccc(-c2nc3ccccc3s2)cc1,IC50,SiHa,6.13 µM
Cc1ccc(Nn2c(SCC(=O)Nc3nc4ccc(Cl)cc4s3)nc(C)c2C)cc1,IC50,HepG2; hepg2,29.3 µg/mL
Cc1nc(SCC(=O)Nc2nc3ccc(F)cc3s2)n(Nc2ccc([N+](=O)[O-])cc2)c1C,IC50,HepG2; hepg2,> 500 µg/mL
CC1=NN(c2ccccc2)C(=O)/C1=N/Nc1cccc(-c2nc3ccccc3s2)c1,IC50,[7],100 nM
same,IC50,A549,12.3 µM
same,IC50,MCF7,12300 nM
same,IC50,[8],9.56 µM
Cc1nc(SCC(=O)Nc2nc3ccccc3s2)n(Nc2ccc([N+](=O)[O-])cc2)c1C,IC50,C6,24.3 µg/mL
same,IC50,HepG2; hepg2,28.7 µg/mL
CN(C)Cc1ccc2nc(NC(=O)N/N=C/c3ccc(OCc4ccc(C(F)(F)F)cc4)cc3O)sc2c1,IC50,HT-29,240 nM
same,IC50,SK-N-SH,240 nM
same,IC50,NCI-H226,240 nM
same,EC50,[10],310 nM
same,IC50,MDA-MB-231 [6],240 nM
same,Ratio IC50,MDA-MB-231 [11],4.24
same,IC50,MKN-45,240 nM
Cc1ccc(N2CCN(CC(=O)Nc3ccc(-c4nc5ccccc5s4)cc3)CC2)cc1,GI50,A549,200 nM
same,GI50,HeLa,200 nM
same,GI50,MDA-MB-231 [6],200 nM
O=C(CNS(=O)(=O)c1ccc(Cl)cc1)N1CCN(c2nc3ccccc3s2)CC1,CC50,DU-145,8 µM
Nc1ccc(-c2nc3ccccc3s2)cc1,IC50,MCF7,0.3 nM
C=CCc1cccc(/C=N/NC(=O)CN2CCN(Cc3ccccc3)CC2)c1O [PAC-1],EC50,[10],410 nM
